Data published in ChEMBL document CHEMBL2163275, “The lipogenesis pathway as a cancer target” (J Med Chem, 2011).

Columns and labels:
ATP-citrate synthase [1] = target: T1, ATP-citrate synthase (Rattus norvegicus, UniProt P16638); test: Inhibition of rat liver ACLY by fluorimetric analysis
T1 sequence (P16638 whole entry): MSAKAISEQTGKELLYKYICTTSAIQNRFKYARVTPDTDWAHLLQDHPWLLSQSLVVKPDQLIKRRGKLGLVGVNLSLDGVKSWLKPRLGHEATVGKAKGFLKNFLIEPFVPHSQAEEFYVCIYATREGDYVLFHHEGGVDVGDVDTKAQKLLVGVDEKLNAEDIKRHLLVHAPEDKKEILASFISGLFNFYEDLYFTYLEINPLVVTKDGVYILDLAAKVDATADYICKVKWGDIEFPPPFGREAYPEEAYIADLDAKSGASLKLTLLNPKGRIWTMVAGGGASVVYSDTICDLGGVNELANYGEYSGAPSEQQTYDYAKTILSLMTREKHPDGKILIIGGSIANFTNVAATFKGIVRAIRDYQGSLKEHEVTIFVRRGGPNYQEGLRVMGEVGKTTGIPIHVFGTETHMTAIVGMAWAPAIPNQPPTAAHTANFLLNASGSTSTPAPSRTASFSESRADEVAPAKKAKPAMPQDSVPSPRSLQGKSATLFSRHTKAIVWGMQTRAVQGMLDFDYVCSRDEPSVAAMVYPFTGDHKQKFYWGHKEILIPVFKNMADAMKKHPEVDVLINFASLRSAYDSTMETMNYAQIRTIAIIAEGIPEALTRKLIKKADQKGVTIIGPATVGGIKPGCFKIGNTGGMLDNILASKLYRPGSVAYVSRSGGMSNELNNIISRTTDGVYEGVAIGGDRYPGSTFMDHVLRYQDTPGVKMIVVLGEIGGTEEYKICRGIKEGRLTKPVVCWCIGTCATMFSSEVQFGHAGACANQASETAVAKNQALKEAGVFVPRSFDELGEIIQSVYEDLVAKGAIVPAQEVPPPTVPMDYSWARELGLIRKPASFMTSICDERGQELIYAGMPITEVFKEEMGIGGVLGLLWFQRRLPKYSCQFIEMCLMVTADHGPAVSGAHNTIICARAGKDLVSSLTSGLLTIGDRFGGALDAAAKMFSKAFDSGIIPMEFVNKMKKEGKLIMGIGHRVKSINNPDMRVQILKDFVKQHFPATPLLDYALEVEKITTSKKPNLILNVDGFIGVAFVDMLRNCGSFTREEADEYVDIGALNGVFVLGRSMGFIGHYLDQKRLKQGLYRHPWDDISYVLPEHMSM

ATP-citrate synthase [2] = target: T1, ATP-citrate synthase
[3] = Inhibition of rat liver ACC
[4] = Competitive inhibition of Escherichia coli ACC carboxyltransferase activity using malonyl coA as substrate
Escherichia coli = test: Ratio of biotin Ki to compound Ki for Escherichia coli ACC
MDA-MB-435 [5] = test: Selectivity ratio of IC50 for human MCF10A to IC50 for human MDA-MB-435 cells
MDA-MB-435 [6] = test: Cytotoxicity against human MDA-MB-435 cells; format: functional, cell-based
Fatty acid synthase [7] = target: T2, Fatty acid synthase (Homo sapiens, UniProt P49327); test: Antagonist activity at human recombinant FASN thioesterase domain by fluorogenic assay; format: functional
Target sequence in this assay (P49327 whole entry, the tested form may be a part): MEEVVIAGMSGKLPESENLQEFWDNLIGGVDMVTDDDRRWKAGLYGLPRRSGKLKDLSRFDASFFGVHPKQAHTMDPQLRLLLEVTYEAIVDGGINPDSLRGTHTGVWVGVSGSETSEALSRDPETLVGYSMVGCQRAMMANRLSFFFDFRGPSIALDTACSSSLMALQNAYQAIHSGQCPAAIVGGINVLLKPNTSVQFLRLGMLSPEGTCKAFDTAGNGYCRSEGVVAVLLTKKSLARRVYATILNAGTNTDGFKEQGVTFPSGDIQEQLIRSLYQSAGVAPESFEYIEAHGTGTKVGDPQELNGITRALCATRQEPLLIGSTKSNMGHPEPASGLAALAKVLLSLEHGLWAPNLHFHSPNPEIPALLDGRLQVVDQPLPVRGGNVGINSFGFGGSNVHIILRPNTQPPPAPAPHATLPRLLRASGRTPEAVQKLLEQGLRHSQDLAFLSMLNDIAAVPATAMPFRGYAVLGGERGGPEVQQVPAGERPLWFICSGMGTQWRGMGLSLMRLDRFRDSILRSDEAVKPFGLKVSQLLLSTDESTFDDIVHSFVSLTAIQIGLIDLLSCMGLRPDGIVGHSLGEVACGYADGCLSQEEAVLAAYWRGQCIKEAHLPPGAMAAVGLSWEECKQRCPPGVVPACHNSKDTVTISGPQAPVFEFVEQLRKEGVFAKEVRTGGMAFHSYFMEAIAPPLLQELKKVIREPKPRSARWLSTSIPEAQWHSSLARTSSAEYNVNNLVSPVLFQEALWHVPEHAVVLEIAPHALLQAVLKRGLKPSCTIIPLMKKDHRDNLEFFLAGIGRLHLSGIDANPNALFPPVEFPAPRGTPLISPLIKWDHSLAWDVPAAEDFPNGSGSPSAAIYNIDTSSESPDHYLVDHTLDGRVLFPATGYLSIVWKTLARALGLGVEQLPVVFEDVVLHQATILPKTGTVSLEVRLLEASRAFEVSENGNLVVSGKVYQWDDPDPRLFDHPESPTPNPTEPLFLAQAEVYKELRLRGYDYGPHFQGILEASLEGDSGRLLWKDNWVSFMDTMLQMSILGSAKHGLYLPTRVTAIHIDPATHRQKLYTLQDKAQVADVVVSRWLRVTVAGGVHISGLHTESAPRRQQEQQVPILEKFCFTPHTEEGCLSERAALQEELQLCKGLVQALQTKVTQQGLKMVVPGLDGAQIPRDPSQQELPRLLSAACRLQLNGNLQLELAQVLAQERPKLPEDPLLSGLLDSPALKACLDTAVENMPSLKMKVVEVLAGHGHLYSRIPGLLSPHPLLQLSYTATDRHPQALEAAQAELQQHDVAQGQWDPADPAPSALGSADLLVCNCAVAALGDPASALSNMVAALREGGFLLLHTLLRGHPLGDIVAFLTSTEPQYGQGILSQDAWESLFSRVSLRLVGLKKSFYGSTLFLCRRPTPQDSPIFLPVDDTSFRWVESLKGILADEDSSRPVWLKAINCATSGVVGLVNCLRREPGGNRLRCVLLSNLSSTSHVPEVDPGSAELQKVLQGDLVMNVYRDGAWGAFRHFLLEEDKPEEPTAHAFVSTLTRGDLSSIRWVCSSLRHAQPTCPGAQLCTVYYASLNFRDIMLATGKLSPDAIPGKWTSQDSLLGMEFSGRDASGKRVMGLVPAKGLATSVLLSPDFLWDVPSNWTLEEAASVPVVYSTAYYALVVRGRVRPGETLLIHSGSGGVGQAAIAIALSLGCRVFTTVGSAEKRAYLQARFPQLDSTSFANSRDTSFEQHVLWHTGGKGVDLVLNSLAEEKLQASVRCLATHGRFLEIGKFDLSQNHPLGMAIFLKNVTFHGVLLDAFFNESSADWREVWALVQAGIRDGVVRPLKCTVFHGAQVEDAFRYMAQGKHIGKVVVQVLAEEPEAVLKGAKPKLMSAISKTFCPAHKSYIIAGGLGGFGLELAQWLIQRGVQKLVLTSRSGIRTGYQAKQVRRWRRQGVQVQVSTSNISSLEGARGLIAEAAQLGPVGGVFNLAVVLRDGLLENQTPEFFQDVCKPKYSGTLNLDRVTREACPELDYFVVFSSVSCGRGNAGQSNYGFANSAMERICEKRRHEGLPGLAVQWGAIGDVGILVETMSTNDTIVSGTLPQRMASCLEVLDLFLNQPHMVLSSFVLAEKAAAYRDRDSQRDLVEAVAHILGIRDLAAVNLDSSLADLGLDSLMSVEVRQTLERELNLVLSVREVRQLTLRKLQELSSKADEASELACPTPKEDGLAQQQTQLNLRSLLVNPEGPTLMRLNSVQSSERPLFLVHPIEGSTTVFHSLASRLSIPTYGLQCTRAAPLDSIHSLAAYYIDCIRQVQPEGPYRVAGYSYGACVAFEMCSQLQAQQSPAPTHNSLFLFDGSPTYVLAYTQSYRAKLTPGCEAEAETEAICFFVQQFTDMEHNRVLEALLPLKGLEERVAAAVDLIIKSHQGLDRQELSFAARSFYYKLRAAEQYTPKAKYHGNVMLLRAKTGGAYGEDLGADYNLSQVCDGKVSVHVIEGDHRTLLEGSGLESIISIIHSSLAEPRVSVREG

[8] = Inhibition of rat liver ACC using acetyl coA as substrate and [14C]NaHCO3 incubated for 30 mins prior to substrate addition by liquid scintillation counting
Fatty acid synthase [9] = target: T2, Fatty acid synthase; test: Inhibition of FASN in human HepG2 cells; format: cell-based
Target sequence in this assay (P49327 whole entry, the tested form may be a part): as above

Fatty acid synthase [10] = target: T2, Fatty acid synthase; settings: SK-BR-3, 22.4 uM
Target sequence in this assay (P49327 whole entry, looked up, the tested form may be a part): as the sequence (P49327 whole entry, the tested form may be a part) above
Description: Inhibition of FASN in human SKBR3 cells at 22.4 uM

Fatty acid synthase [11] = target: T2, Fatty acid synthase; settings: SK-BR-3, 179 uM
Target sequence in this assay (P49327 whole entry, looked up, the tested form may be a part): as the sequence (P49327 whole entry, the tested form may be a part) above
Description: Inhibition of FASN in human SKBR3 cells at 179 uM

Fatty acid synthase [12] = target: T2, Fatty acid synthase; test: Inhibition of FASN in human SKBR3 cells at 21 uM after 3 mins by spectrophotometric analysis relative to control; format: cell-based; settings: SK-BR-3
Target sequence in this assay (P49327 whole entry, looked up, the tested form may be a part): as the sequence (P49327 whole entry, the tested form may be a part) above

Fatty acid synthase [13] = target: T2, Fatty acid synthase; test: Inhibition of FASN in human SKBR3 cells at 29 uM after 3 mins by spectrophotometric analysis relative to control; format: cell-based; settings: SK-BR-3
Target sequence in this assay (P49327 whole entry, looked up, the tested form may be a part): as the sequence (P49327 whole entry, the tested form may be a part) above

ATP-citrate synthase [14] = target: T3, ATP-citrate synthase (Homo sapiens, UniProt P53396); test: Inhibition of human recombinant ACLY
T3 sequence (P53396 whole entry): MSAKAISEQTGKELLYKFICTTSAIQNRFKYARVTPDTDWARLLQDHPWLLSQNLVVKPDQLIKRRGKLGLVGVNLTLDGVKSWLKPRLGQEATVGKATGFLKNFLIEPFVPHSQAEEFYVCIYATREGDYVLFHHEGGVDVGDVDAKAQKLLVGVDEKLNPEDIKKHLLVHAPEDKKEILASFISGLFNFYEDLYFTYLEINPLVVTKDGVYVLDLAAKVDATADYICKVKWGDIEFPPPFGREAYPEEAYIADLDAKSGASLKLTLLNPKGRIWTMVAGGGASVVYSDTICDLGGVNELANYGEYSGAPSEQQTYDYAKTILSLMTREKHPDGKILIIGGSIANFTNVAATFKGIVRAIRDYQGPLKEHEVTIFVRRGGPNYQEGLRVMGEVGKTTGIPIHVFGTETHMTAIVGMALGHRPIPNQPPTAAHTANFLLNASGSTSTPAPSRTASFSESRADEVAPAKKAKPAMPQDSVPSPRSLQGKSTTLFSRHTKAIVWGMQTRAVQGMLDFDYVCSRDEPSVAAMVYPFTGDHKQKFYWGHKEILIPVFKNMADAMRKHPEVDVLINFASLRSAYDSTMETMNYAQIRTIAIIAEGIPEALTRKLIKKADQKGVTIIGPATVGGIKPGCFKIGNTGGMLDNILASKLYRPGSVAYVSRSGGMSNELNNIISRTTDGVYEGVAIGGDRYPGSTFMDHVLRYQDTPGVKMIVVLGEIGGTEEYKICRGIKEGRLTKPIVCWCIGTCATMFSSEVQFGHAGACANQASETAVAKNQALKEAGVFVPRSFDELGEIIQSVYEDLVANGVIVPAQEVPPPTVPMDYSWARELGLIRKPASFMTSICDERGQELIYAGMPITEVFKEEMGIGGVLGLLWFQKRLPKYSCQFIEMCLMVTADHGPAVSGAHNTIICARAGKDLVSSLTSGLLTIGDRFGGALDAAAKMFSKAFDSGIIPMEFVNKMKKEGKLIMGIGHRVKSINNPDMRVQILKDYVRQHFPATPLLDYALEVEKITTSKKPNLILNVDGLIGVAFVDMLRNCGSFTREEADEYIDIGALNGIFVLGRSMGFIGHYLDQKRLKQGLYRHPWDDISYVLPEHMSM

Fatty acid synthase [15] = target: T2, Fatty acid synthase; test: Inhibition of FASN in human A375 cells; format: cell-based, A-375
Target sequence in this assay (P49327 whole entry, the tested form may be a part): as the sequence (P49327 whole entry, the tested form may be a part) above

Fatty acid synthase [16] = target: Fatty acid synthase (Gallus gallus, UniProt P12276); test: Inhibition of chicken liver FASN ketoreductase activity
Fatty acid synthase [17] = target: T2, Fatty acid synthase; test: Inhibition of human recombinant FASN thioesterase domain
Target sequence in this assay (P49327 whole entry, the tested form may be a part): as the sequence (P49327 whole entry, the tested form may be a part) above

O=C(O)C[C@@](O)(C(=O)O)[C@H](O)C(=O)O
Ki (ATP-citrate synthase [1]): 8 µM

O=C(O)C[C@@]1(C(=O)O)O[C@H]1C(=O)O
Ki (ATP-citrate synthase [2]): 18 µM

O=C1C[C@@](O)(C(=O)O)[C@@H](C(=O)O)O1
Ki (ATP-citrate synthase [1]): 50 µM

Cc1cc(O)c2c(c1)Cc1cc(O)c(Cl)c(O)c1C2=O
IC50 (ATP-citrate synthase [2]): 0.283 µM

CC(C)(C)c1ccc(N2C[C@@H](COc3ccc(C(=O)SCCNC(=O)CCNC(=O)[C@H](O)C(C)(C)COP(=O)(O)OP(=O)(O)OC[C@H]4O[C@@H](n5cnc6c(N)ncnc65)[C@H](O)[C@@H]4OP(=O)(O)O)cc3)CC2=O)cc1
Ki [3]: 69.2 µM

CC(C)(COP(=O)(O)OP(=O)(O)OC[C@H]1O[C@@H](n2cnc3c(N)ncnc32)[C@H](O)[C@@H]1OP(=O)(O)O)[C@H](O)C(=O)NCCC(=O)NCCSC(=O)CC(=O)N1C(=O)N[C@@H]2[C@H](CCCCC(=O)OCc3ccccc3)SC[C@@H]21
Ki [4]: 23 µM
Ratio Ki (Escherichia coli): 350

Cc1c(-c2cc3ccccc3o2)oc(=O)c(C)c1O
Ki [3]: 3.3 µM

Cc1cc(C)cc(N2C(=O)NC(=O)/C(=C\c3ccc(-c4ccccc4)o3)C2=O)c1
Ratio IC50 (MDA-MB-435 [5]): 2
IC50 (MDA-MB-435 [6]): 3.47 µM
Ki (Fatty acid synthase [7]): 0.38 µM

CC(C)(CCCCCC(O)CCCCCC(C)(C)C(=O)SCCNC(=O)CCNC(=O)[C@H](O)C(C)(C)COP(=O)(O)OP(=O)(O)OC[C@H]1O[C@@H](n2cnc3c(N)ncnc32)[C@H](O)[C@@H]1OP(=O)(O)O)C(=O)O (stereo partly specified)
IC50 [8]: 29 µM

C=C/C(C)=C/[C@]1(C)SC(=O)C(C)=C1O
IC50 (Fatty acid synthase [9]): 208 µM

C=C/C(C)=C/[C@]1(C)SC(=O)C=C1O
IC50 (Fatty acid synthase [9]): 96.8 µM

CCCCC/C=C\C/C=C\C/C=C\CCCCC(=O)O
inhibition (Fatty acid synthase [10]): 41%
inhibition (Fatty acid synthase [11]): 78%

O=C(Oc1cc(OC(=O)c2cc(O)c(O)c(O)c2)c2ccccc2c1)c1cc(O)c(O)c(O)c1
inhibition (Fatty acid synthase [12]): 90%

O=C(Oc1ccc(OC(=O)c2cc(O)c(O)c(O)c2)c2ccccc12)c1cc(O)c(O)c(O)c1
inhibition (Fatty acid synthase [13]): 69%

O=C(O)C[C@](O)(C[C@@H](O)CCCCCC1c2ccccc2-c2cc(Cl)ccc21)C(=O)O (mixture of isomers)
Ki (ATP-citrate synthase [14]): 0.22 µM

O=C(O)[C@H](O)[C@](O)(C[C@@H](O)CCCCCCc1ccc(Cl)cc1Cl)C(=O)O (racemic)
Ki (ATP-citrate synthase [14]): 0.62 µM

Cc1cn(-c2cc(Cl)ccc2CCCCCC[C@H](O)C[C@@](O)(CC(=O)O)C(=O)O)cc1C (racemic)
Ki (ATP-citrate synthase [14]): 0.3 µM

O=C(O)C[C@](O)(C[C@@H](O)CCCCCn1c(-c2ccccc2)cc2cc(Cl)ccc21)C(=O)O (racemic)
Ki (ATP-citrate synthase [14]): 0.37 µM

O=C(O)C[C@](O)(C[C@@H](O)CCCCCn1c2ccccc2c2cc(Cl)ccc21)C(=O)O (racemic)
Ki (ATP-citrate synthase [14]): 0.71 µM

C=C1C(=O)O[C@H](CCCCCCCC)[C@H]1C(=O)O (relative stereo)
IC50 (Fatty acid synthase [15]): 32.4 µM
IC50 (Fatty acid synthase [16]): 80 µM
IC50 (Fatty acid synthase [17]): 59 µM
